Assay results as given in patent US4433154A, “Bis(carboxamide) derivatives” (Shionogi & Company, Limited, priority 1981, dated 1984).

Biological target: T1, histamine H2 receptor (Cavia porcellus, UniProt P47747)
T1 construct: enucleated atrium of a guinea pig; from tissue; host or cells: guinea pig atrium
Assay: Histamine H2-blocking effect in enucleated guinea pig atrium (inhibition of histamine-increased pulse)
Assay type: cell-based
Conditions: in vitro; enucleated guinea pig atrium pretreated with drug; negative logarithm of antagonist dose shifting histamine dose-response curve corresponding to doubling of histamine concentration; read-out: pA2 (converted)
Text: In the table 10, the symbol pA2 indicates the degree of pulse inhibition of the compounds (I) in the present invention in the enucleated atrium of a guinea pig. The assigned number of compounds in the table conforms to the number of the examples.
(Note) PA2 is an in vitro indicator of histamine H2 -blocking effect. […] The result was shown by negative logarithms of the dose of antagonist which is required to shift the dose-response curve of histamine in parallel to the side corresponding to a doubling of the concentration of histamine [Ariens, Molecular Pharmacology, vol./, Academic Press, New York (1964)].

T1 sequence (P47747 whole entry): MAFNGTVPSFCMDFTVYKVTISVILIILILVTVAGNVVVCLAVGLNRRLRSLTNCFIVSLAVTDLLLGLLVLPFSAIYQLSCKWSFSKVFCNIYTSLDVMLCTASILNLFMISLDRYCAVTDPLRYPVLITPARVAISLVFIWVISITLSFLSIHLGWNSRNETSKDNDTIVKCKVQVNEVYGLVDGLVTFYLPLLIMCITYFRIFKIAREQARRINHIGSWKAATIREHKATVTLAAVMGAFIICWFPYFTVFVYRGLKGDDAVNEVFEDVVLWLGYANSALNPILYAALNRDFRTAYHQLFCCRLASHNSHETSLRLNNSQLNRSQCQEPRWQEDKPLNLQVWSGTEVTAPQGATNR

Compound	Kb [µM]
O=C(CSCC(=O)NCCCOc1cccc(CN2CCCC2)c1)NCCCOc1cccc(CN2CCCC2)c1 [Example 12, N,N'-bis{3-[3-(1-pyrrolidinylmethyl)phenoxy]propyl}thiodiglycoldamide]	0.0661
O=C(NCCCOc1cccc(CN2CCCC2)c1)c1ccc(C(=O)NCCCOc2cccc(CN3CCCC3)c2)cc1 [Example 11]	0.204
O=C(/C=C/C(=O)NCCCOc1cccc(CN2CCCC2)c1)NCCCOc1cccc(CN2CCCC2)c1 [Example 10, N,N'-bis{3-[3-(1-pyrrolidinylmethyl)phenoxy]propyl}fumaramide]	0.0537
O=C(NCCCOc1cccc(CN2CCCC2)c1)c1cccc(C(=O)NCCCOc2cccc(CN3CCCC3)c2)c1 [Example 14]	0.0603
